Measurements reported in patent publication US7208511B2, “Microbicidal composition” (Rohm and Haas Company, priority 2003, dated 2007).

Columns and labels:
[1] = tested on: Mixed Bacteria; assay: Speed of Kill test in TSB; format: cell-based; conditions: for Minimum Effective Concentration ALONE: 5-log reduction criteria, no end point measured, value is 2× the highest level tested (Lazonby)
Excerpt: (§1) One measure of synergism is the industrially accepted method described by Kull, F. C.; Eisman, P. C.; Sylwestrowicz, H. D. and Mayer, R. L., in Applied Microbiology 9:538–541 (1961), using the ratio determined by the formula: Qa/QA+Qb/QB=Synergy Index (“SI”) wherein: • QA=concentration of compound A (first component) in ppm, acting alone, which produced an end point (MIC of Compound A). • Qa=concentration of compound A in ppm, in the mixture, which produced an end point. • QB=concentration of compound B (second component) in ppm, acting alone, which produced an end point (MIC of Compound B). • Qb=concentration of compound B in ppm, in the mixture, which produced an end point.
(§2) When the sum of Qa/QA and Qb/QB is greater than one, antagonism is indicated. […] The lower the SI, the greater the synergy shown by that particular mixture. The minimum inhibitory concentration (MIC) of a microbicide is the lowest concentration tested under a specific set of conditions that prevents the growth of added microorganisms.
To evaluate “Speed of Kill” an aliquot of 30 g of pH 8 TSB was dispensed in sterile 2 oz (60 mL) jars. Biocides stock solution was added into each jar to achieve the final concentration. The test samples were inoculated with 0.3 ml of mixed bacterial inoculum (resulting in 10^6/ml bacteria per ml of test solution). Samples were then placed in a shaker water bath at 30° C. Bacterial growth was monitored via the microtiter MPN method using the BECKMAN AUTOMATIC 2000 Workstation after 30 min, 1, 4, 24, 48, 72 hours and again 6–7 days contact time. The microtiter plates were incubated at 30° C. for 2 days.
(§3) In each test, First Component (A) was MI and the Second Component (B) was DBNPA. “NG” means that no growth was observed.

[2] = tested on: Mixed Bacteria; assay: Minimum Inhibitory Concentration (MIC) synergy test, microtiter plate; format: cell-based; conditions: after 24 hours at 30° C.
Excerpt: as §1, §2
Synergy tests were conducted using standard microtiter plate assays with media designed for optimal growth of the test microorganism. […] High resolution MICs were determined by adding varying amounts of microbicide to one column of a microtitre plate and doing subsequent ten-fold dilutions using an automated liquid handling system to obtain a series of endpoints ranging from 2 ppm to 10,000 ppm active ingredient. The combinations of the present invention were tested against three bacteria, Pseudomonas aeruginosa (P. aeruginosa —ATCC #15442), Enterobacter aerogenes (ATCC #13048), and Kiebsiella pneumoniae (ATCC #13883). The bacteria were used at a concentration of about 10^8 bacteria per mL. These microorganisms are representative of natural contaminants in many consumer and industrial applications. The plates were visually evaluated for microbial growth (turbidity) to determine the MIC after various incubation times at 30° C.
as §3

N#CC(Br)(Br)C(N)=O [DBNPA, 2,2-dibromo-3-nitrilopropionamide]
Minimum Effective Concentration ALONE ([1]; 24 hr): 46 ppm AI | Minimum Effective Concentration ALONE ([1]; 48 hr): 46 ppm AI | Minimum Effective Concentration ALONE ([1]; 72 hr): 46 ppm AI | CFU/ml Bacteria Log Reduction vs Control ([1]; DBNPA 1 ppm AI alone, 30 min @ 30° C.): 0.6 log | CFU/ml Bacteria Log Reduction vs Control ([1]; DBNPA 1 ppm AI alone, 1 hr @ 30° C.): −0.6 log | CFU/ml Bacteria Log Reduction vs Control ([1]; DBNPA 1 ppm AI alone, 4 hr @ 30° C.): −1.0 log | CFU/ml Bacteria Log Reduction vs Control ([1]; DBNPA 1 ppm AI alone, 24 hr @ 30° C.): −2.6 log | CFU/ml Bacteria Log Reduction vs Control ([1]; DBNPA 2 ppm AI alone, 30 min @ 30° C.): −0.1 log | CFU/ml Bacteria Log Reduction vs Control ([1]; DBNPA 2 ppm AI alone, 1 hr @ 30° C.): −0.3 log | CFU/ml Bacteria Log Reduction vs Control ([1]; DBNPA 2 ppm AI alone, 4 hr @ 30° C.): −0.8 log | CFU/ml Bacteria Log Reduction vs Control ([1]; DBNPA 2 ppm AI alone, 24 hr @ 30° C.): −1.4 log | CFU/ml Bacteria Log Reduction vs Control ([1]; DBNPA 5 ppm AI alone, 30 min @ 30° C.): 0.4 log | CFU/ml Bacteria Log Reduction vs Control ([1]; DBNPA 5 ppm AI alone, 1 hr @ 30° C.): −0.3 log | CFU/ml Bacteria Log Reduction vs Control ([1]; DBNPA 5 ppm AI alone, 4 hr @ 30° C.): −0.8 log | CFU/ml Bacteria Log Reduction vs Control ([1]; DBNPA 5 ppm AI alone, 24 hr @ 30° C.): −1.6 log | CFU/ml Bacteria Log Reduction vs Control ([1]; DBNPA 9 ppm AI alone, 30 min @ 30° C.): 0.4 log | CFU/ml Bacteria Log Reduction vs Control ([1]; DBNPA 9 ppm AI alone, 1 hr @ 30° C.): 0.0 log | CFU/ml Bacteria Log Reduction vs Control ([1]; DBNPA 9 ppm AI alone, 4 hr @ 30° C.): −1.0 log | CFU/ml Bacteria Log Reduction vs Control ([1]; DBNPA 9 ppm AI alone, 24 hr @ 30° C.): −2.0 log | CFU/ml Bacteria Log Reduction vs Control ([1]; DBNPA 23 ppm AI alone, 30 min @ 30° C.): 0.4 log | CFU/ml Bacteria Log Reduction vs Control ([1]; DBNPA 23 ppm AI alone, 1 hr @ 30° C.): 0.2 log | CFU/ml Bacteria Log Reduction vs Control ([1]; DBNPA 23 ppm AI alone, 4 hr @ 30° C.): −1.0 log | CFU/ml Bacteria Log Reduction vs Control ([1]; DBNPA 23 ppm AI alone, 24 hr @ 30° C.): −1.4 log | MIC Values ALONE ([2]; 1/10 TSB): 45 ppm AI | MIC Values ALONE ([2]; M9G + 0.1% yeast extract): 45 ppm AI

Cn1sccc1=O [MI, 2-methyl-4-isothiazolin-3-one]
Minimum Effective Concentration ALONE ([1]; 24 hr): 300 ppm AI | Minimum Effective Concentration ALONE ([1]; 48 hr): 300 ppm AI | Minimum Effective Concentration ALONE ([1]; 72 hr): 300 ppm AI | CFU/ml Bacteria Log Reduction vs Control ([1]; MI 25 ppm AI alone, 30 min @ 30° C.): −0.3 log | CFU/ml Bacteria Log Reduction vs Control ([1]; MI 25 ppm AI alone, 1 hr @ 30° C.): 0.0 log | CFU/ml Bacteria Log Reduction vs Control ([1]; MI 25 ppm AI alone, 4 hr @ 30° C.): 0.2 log | CFU/ml Bacteria Log Reduction vs Control ([1]; MI 25 ppm AI alone, 24 hr @ 30° C.): −1.3 log | CFU/ml Bacteria Log Reduction vs Control ([1]; MI 25 ppm AI alone, 48 hr @ 30° C.): −2.0 log | CFU/ml Bacteria Log Reduction vs Control ([1]; MI 50 ppm AI alone, 30 min @ 30° C.): 0.4 log | CFU/ml Bacteria Log Reduction vs Control ([1]; MI 50 ppm AI alone, 1 hr @ 30° C.): 0.2 log | CFU/ml Bacteria Log Reduction vs Control ([1]; MI 50 ppm AI alone, 4 hr @ 30° C.): 0.4 log | CFU/ml Bacteria Log Reduction vs Control ([1]; MI 50 ppm AI alone, 24 hr @ 30° C.): −0.6 log | CFU/ml Bacteria Log Reduction vs Control ([1]; MI 50 ppm AI alone, 48 hr @ 30° C.): −1.6 log | CFU/ml Bacteria Log Reduction vs Control ([1]; MI 75 ppm AI alone, 30 min @ 30° C.): 0.2 log | CFU/ml Bacteria Log Reduction vs Control ([1]; MI 75 ppm AI alone, 1 hr @ 30° C.): 0.2 log | CFU/ml Bacteria Log Reduction vs Control ([1]; MI 75 ppm AI alone, 4 hr @ 30° C.): −0.3 log | CFU/ml Bacteria Log Reduction vs Control ([1]; MI 75 ppm AI alone, 24 hr @ 30° C.): 0.2 log | CFU/ml Bacteria Log Reduction vs Control ([1]; MI 75 ppm AI alone, 48 hr @ 30° C.): −2.0 log | CFU/ml Bacteria Log Reduction vs Control ([1]; MI 100 ppm AI alone, 168 @ 30° C.): −2.8 log | CFU/ml Bacteria Log Reduction vs Control ([1]; MI 100 ppm AI alone, 30 min @ 30° C.): 0.4 log | CFU/ml Bacteria Log Reduction vs Control ([1]; MI 100 ppm AI alone, 1 hr @ 30° C.): 0.6 log | CFU/ml Bacteria Log Reduction vs Control ([1]; MI 100 ppm AI alone, 4 hr @ 30° C.): 0.2 log | CFU/ml Bacteria Log Reduction vs Control ([1]; MI 100 ppm AI alone, 24 hr @ 30° C.): 0.8 log | CFU/ml Bacteria Log Reduction vs Control ([1]; MI 100 ppm AI alone, 48 hr @ 30° C.): 1.7 log | CFU/ml Bacteria Log Reduction vs Control ([1]; MI 100 ppm AI alone, 72 hr @ 30° C.): 0.0 log | CFU/ml Bacteria Log Reduction vs Control ([1]; MI 150 ppm AI alone, 168 @ 30° C.): −2.0 log | CFU/ml Bacteria Log Reduction vs Control ([1]; MI 150 ppm AI alone, 30 min @ 30° C.): 0.6 log | CFU/ml Bacteria Log Reduction vs Control ([1]; MI 150 ppm AI alone, 1 hr @ 30° C.): 0.2 log | CFU/ml Bacteria Log Reduction vs Control ([1]; MI 150 ppm AI alone, 4 hr @ 30° C.): 0.0 log | CFU/ml Bacteria Log Reduction vs Control ([1]; MI 150 ppm AI alone, 24 hr @ 30° C.): −0.2 log | CFU/ml Bacteria Log Reduction vs Control ([1]; MI 150 ppm AI alone, 48 hr @ 30° C.): 1.7 log | CFU/ml Bacteria Log Reduction vs Control ([1]; MI 150 ppm AI alone, 72 hr @ 30° C.): 0.4 log | MIC Values ALONE ([2]; 1/10 TSB): 38 ppm AI | MIC Values ALONE ([2]; M9G + 0.1% yeast extract): 38 ppm AI
